Source: patent US20240360134A1, “PYRAZOLOPYRIMIDINES AND THEIR USES AS PDGFR INHIBITORS” (priority 2021, published 2024)

Assays:
[1] = target: Tb-labeled inactive PDGFRβ (Homo sapiens (Human), UniProt P09619); assay: biochemical; format: binding; conditions: read-out: PDGFR Lantha IC50
[2] = target: His6-TEV-PDGFRβ (557-1016) (Homo sapiens (Human), UniProt P09619); assay: PDGFRβ HTRF Assay; format: biochemical; conditions: 800 μM ATP, 0.5 μM TK-substrate biotin peptide, 30 min pre-incubation, 3 hours reaction; read-out: PDGFR HTRF IC50
Chain of His6-TEV-PDGFRβ (557-1016) (P09619 whole entry, looked up): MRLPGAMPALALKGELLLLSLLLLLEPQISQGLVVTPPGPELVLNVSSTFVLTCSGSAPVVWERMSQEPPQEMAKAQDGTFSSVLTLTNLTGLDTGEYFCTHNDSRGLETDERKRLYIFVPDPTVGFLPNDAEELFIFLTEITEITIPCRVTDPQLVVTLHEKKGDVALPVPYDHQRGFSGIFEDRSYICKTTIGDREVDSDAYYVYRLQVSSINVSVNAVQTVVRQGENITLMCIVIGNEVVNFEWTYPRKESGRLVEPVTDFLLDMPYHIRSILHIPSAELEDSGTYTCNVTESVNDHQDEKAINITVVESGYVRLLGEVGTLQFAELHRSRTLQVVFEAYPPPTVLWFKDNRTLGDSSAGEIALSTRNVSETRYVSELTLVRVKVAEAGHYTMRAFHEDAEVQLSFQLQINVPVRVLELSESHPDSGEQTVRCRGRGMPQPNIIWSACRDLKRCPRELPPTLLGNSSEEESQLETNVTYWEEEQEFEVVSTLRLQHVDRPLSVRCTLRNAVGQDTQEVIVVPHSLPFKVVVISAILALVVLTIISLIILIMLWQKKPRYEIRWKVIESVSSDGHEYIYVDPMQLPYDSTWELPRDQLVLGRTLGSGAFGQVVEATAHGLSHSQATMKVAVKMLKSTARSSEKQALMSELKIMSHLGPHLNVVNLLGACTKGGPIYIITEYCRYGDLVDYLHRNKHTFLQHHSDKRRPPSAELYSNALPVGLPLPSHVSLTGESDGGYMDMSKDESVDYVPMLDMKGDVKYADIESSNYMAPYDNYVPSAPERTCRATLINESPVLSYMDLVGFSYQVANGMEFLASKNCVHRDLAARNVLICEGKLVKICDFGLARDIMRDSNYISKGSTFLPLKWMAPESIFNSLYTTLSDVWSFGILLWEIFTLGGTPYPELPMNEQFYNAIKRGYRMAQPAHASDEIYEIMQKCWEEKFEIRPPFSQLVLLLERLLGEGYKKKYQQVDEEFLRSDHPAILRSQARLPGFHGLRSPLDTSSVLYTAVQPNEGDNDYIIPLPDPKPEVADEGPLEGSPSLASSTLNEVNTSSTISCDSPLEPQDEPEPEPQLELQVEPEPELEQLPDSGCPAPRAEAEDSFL

VEGFR2, unphosphorylated = VEGFR2, unphosphorylated (Homo sapiens (Human), UniProt P35968); assay: VEGFR ADP GLO assay; format: biochemical; conditions: 5 nM VEGFR2, 1.2 mM ATP, 1 mg/mL Srctide, 180 min
Chain of VEGFR2, unphosphorylated (P35968 whole entry, looked up): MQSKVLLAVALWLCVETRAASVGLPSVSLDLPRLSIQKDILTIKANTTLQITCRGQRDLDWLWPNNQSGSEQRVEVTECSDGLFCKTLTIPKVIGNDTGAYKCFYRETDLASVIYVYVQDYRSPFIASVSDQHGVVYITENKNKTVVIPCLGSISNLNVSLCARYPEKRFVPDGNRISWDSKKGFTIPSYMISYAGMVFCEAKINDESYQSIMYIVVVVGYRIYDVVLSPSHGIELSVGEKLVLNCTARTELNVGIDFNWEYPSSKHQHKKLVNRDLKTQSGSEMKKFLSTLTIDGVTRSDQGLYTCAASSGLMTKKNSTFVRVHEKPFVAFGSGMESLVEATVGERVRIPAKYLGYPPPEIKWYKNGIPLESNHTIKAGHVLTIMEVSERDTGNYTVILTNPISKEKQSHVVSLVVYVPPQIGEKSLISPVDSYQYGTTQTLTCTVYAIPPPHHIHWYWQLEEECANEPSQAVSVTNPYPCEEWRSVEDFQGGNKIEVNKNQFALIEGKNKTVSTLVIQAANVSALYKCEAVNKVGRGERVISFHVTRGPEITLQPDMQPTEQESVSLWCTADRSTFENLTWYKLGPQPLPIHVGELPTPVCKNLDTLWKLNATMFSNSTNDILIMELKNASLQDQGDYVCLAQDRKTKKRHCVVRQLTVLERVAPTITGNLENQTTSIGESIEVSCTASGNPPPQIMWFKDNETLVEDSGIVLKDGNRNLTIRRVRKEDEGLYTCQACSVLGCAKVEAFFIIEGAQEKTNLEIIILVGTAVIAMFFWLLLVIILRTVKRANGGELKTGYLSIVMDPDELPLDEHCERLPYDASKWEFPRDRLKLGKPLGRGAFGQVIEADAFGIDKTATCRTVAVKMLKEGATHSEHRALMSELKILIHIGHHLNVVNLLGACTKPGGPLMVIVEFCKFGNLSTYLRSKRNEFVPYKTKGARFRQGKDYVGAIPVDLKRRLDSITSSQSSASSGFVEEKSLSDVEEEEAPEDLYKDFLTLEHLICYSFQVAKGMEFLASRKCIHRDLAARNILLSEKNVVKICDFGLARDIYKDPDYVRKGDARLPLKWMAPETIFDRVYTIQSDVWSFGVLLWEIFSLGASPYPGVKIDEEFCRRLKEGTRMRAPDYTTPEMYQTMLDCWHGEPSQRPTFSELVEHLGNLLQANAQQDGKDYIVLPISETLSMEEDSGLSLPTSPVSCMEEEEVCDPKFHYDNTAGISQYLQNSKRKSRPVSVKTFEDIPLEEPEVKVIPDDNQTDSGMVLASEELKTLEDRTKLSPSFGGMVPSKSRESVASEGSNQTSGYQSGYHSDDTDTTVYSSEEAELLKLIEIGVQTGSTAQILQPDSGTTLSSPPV
Summary of the method: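 Unphosphorylated kinase (10 nM 2× solution) pre-incubated 30 min at RT with compounds (11-point, 3-fold, top 10 µM), then reacted 180 min with srctide and ATP (2×: 2 mg/mL, 2.4 mM) in HEPES pH 7.5 buffer. ADP read by luminescence. IC50 from 4-parameter fit, normalized to DMSO and 1 µM TAK-593.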

PDGFRβ = PDGFRβ (Rattus norvegicus (Rat), UniProt Q05030); assay: PDGFRβ Cellular Assay (PDGFRb P-Y751 HTRF, PDGF-BB stimulated A10 cells); format: cell-based; conditions: A10 cells, 3 hours compound, 15 ng/mL PDGFbb for 10 minutes; read-out: PDGFR Cellular IC50
Chain of PDGFRβ (Q05030 whole entry, looked up): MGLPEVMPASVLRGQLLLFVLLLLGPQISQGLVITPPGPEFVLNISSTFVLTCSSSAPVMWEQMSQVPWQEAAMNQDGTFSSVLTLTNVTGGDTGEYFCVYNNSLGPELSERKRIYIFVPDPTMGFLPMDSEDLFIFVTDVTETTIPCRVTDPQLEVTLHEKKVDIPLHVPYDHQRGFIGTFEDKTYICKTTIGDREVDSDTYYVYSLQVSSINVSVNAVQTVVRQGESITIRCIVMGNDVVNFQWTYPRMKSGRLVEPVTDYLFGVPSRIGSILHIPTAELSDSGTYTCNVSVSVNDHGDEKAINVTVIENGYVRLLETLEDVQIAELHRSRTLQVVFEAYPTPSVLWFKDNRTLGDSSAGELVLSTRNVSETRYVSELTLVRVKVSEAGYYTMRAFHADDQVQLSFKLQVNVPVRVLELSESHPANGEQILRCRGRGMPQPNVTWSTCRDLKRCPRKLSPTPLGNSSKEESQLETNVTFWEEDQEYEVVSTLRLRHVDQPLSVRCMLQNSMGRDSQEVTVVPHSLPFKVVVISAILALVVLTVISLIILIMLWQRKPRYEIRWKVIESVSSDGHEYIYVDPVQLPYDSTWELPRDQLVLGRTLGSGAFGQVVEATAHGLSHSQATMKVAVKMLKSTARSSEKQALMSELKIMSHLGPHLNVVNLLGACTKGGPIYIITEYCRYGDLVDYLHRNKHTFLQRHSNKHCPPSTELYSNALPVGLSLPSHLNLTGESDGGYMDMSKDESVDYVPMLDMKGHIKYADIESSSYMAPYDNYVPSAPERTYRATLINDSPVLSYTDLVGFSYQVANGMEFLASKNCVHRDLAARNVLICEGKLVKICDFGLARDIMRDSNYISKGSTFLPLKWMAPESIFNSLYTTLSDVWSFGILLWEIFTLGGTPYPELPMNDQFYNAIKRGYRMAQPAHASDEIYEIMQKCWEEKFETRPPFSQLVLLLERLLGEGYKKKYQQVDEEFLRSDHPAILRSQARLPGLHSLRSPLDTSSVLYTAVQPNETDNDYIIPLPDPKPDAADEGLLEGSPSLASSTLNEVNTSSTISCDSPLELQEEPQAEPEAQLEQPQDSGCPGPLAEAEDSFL
Summary of the method: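 Rat A10 cells plated overnight were treated with compound for 3 h, stimulated with rat PDGF-BB (working stock 100 ng/mL in 10% FBS medium) for 10 min, then lysed.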

Chain of Tb-labeled inactive PDGFRβ (P09619 whole entry, looked up): as the sequence (P09619 whole entry, looked up) above

SMILES	IC50 [1] [nM]	IC50 [2] [nM]	IC50 (VEGFR2, unphosphorylated) [nM]	IC50 (PDGFRβ) [nM]
Cc1ncc(C(=O)NCCC2CCCCC2)cc1Nc1nn(C)c2nc(Nc3ccnc(N4CCN(CCO)CC4)c3)ncc12 [Example 110, N-(2-cyclohexylethyl)-5-((6-((2-(4-(2-hydroxyethyl)piperazin-1-yl)pyridin-4-yl)amino)-1-methyl-1H-pyrazolo[3,4-d]pyrimidin-3-yl)amino)-6-methylnicotinamide]	3.9	0.77	143	108
Cc1ncc(NC(=O)C2(C(=O)N3CCN(C)CC3)CC2)cc1Nc1nn(C)c2nc(Nc3cnn(C)c3)ncc12 [Example 116, N-(6-methyl-5-((1-methyl-6-((1-methyl-1H-pyrazol-4-yl)amino)-1H-pyrazolo[3,4-d]pyrimidin-3-yl)amino)pyridin-3-yl)-1-(4-methylpiperazine-1-carbonyl)cyclopropanecarboxamide]	59.4	2.63	> 7500	721
Cc1ncc(C(=O)NCCN2CCCC2(C)C)cc1Nc1nn(C)c2nc(Nc3cncc(C(N)=O)c3)ncc12 [Example 29, 5-((6-((5-carbamoylpyridin-3-yl)amino)-1-methyl-1H-pyrazolo[3,4-d]pyrimidin-3-yl)amino)-N-(2-(2,2-dimethylpyrrolidin-1-yl)ethyl)-6-methylnicotinamide]	6.6	0.8	> 10000	5330
C[C@H]1CCCN1CCNC(=O)c1ccc(F)c(Nc2nn(C)c3nc(Nc4cnn(C)c4)ncc23)c1 [Example 119, (S)-4-fluoro-3-((1-methyl-6-((1-methyl-1H-pyrazol-4-yl)amino)-1H-pyrazolo[3,4-d]pyrimidin-3-yl)amino)-N-(2-(2-methylpyrrolidin-1-yl)ethyl)benzamide]	1.4	0.13	6600	5.8
Cc1ncc(C(=O)NCCN2C[C@@H](C)O[C@@H](C)C2)cc1Nc1nn(C)c2nc(Nc3cnn(C)c3)ncc12 [Example 91, N-(2-(cis-2,6-dimethylmorpholino)ethyl)-6-methyl-5-((1-methyl-6-((1-methyl-1H-pyrazol-4-yl)amino)-1H-pyrazolo[3,4-d]pyrimidin-3-yl)amino)nicotinamide]	4.2	0.46	> 7500	44.3
Cc1ncc(C(=O)NCCN2C[C@H](C)O[C@@H](C)C2)cc1Nc1nn(C)c2nc(Nc3cnn(C)c3)ncc12 (relative stereo) [Example 92, N-(2-(trans-2,6-dimethylmorpholino)ethyl)-6-methyl-5-((1-methyl-6-((1-methyl-1H-pyrazol-4-yl)amino)-1H-pyrazolo[3,4-d]pyrimidin-3-yl)amino)nicotinamide]	4.3	0.69	6700	22.8
Cc1ncc(NC(=O)CN2CCC[C@@H]2C)cc1Nc1nn(C)c2nc(Nc3cn(C)cn3)ncc12 [Example 142, (S)—N-(6-methyl-5-((1-methyl-6-((1-methyl-1H-imidazol-4-yl)amino)-1H-pyrazolo[3,4-d]pyrimidin-3-yl)amino)pyridin-3-yl)-2-(2-methylpyrrolidin-1-yl)acetamide]	107	4.66	> 7500	13.4
Cc1ncc(NC(=O)CN2CC(C)(C)C2)cc1Nc1nn(C)c2nc(Nc3cnn(C)c3)ncc12 [Example 77, 2-(3,3-dimethylazetidin-1-yl)-N-(6-methyl-5-((1-methyl-6-((1-methyl-1H-pyrazol-4-yl)amino)-1H-pyrazolo[3,4-d]pyrimidin-3-yl)amino)pyridin-3-yl)acetamide]	1.9	0.24	5110	2.4
Cc1ncc(C(=O)NCCC2CCCCC2)cc1Nc1nn(C)c2nc(Nc3ccc(CC#N)nc3)ncc12 [Example 105, 5-((6-((6-(cyanomethyl)pyridin-3-yl)amino)-1-methyl-1H-pyrazolo[3,4-d]pyrimidin-3-yl)amino)-N-(2-cyclohexylethyl)-6-methylnicotinamide]	2.7	0.59	3360	9.7
Cc1ncc(C(=O)NCCN2CCC[C@@H]2C)cc1Nc1nn(C)c2nc(Nc3cncnc3)ncc12 [Example 3, (S)-6-methyl-5-((1-methyl-6-(pyrimidin-5-ylamino)-1H-pyrazolo [3,4-d]pyrimidin-3-yl)amino)-N-(2-(2-methylpyrrolidin-1-yl)ethyl)nicotinamide]	6.8	0.68	> 7500	113
COC1CCN(CC(=O)Nc2cnc(C)c(Nc3nn(C)c4nc(Nc5cnn(C)c5)ncc34)c2)CC1 [Example 134, 2-(4-methoxypiperidin-1-yl)-N-(6-methyl-5-((1-methyl-6-((1-methyl-1H-pyrazol-4-yl)amino)-1H-pyrazolo[3,4-d]pyrimidin-3-yl)amino)pyridin-3-yl)acetamide]	3.1	0.43	> 7500	7.4
Cc1ccc(C(=O)NCCN2CCC(F)(F)CC2)cc1Nc1nn(C)c2nc(Nc3cnn(C)c3)ncc12 [Example 118, N-(2-(4,4-difluoropiperidin-1-yl)ethyl)-4-methyl-3-((1-methyl-6-((1-methyl-1H-pyrazol-4-yl)amino)-1H-pyrazolo[3,4-d]pyrimidin-3-yl)amino)benzamide]	1.8	0.29	76	5.4
CC[C@@H]1CN(CCNC(=O)c2cnc(C)c(Nc3nn(C)c4nc(Nc5cnn(C)c5)ncc34)c2)CCO1 [Example 88, (R)—N-(2-(2-ethylmorpholino)ethyl)-6-methyl-5-((1-methyl-6-((1-methyl-1H-pyrazol-4-yl)amino)-1H-pyrazolo[3,4-d]pyrimidin-3-yl)amino)nicotinamide]	3	0.35	> 7500	22.3
Cn1cc(Nc2ncc3c(Nc4cc(C(=O)NCCN5CCCC5(C)C)ccc4F)nn(C)c3n2)cn1 [Example 121, N-(2-(2,2-dimethylpyrrolidin-1-yl)ethyl)-4-fluoro-3-((1-methyl-6-((1-methyl-1H-pyrazol-4-yl)amino)-1H-pyrazolo[3,4-d]pyrimidin-3-yl)amino)benzamide]	1.3	0.2	> 7500	3.6
Cc1ccc(C(=O)NCCN2CCCC2(C)C)cc1Nc1nn(C)c2nc(Nc3cnn(C)c3)ncc12 [Example 66, N-(2-(2,2-dimethylpyrrolidin-1-yl)ethyl)-4-methyl-3-((1-methyl-6-((1-methyl-1H-pyrazol-4-yl)amino)-1H-pyrazolo[3,4-d]pyrimidin-3-yl)amino)benzamide]	2.3	0.28	1330	3.4
Cc1ncc(C(=O)NCCN2CCCC2(C)C)cc1Nc1nn(C)c2cc(Nc3cnn(C)c3)ncc12 [Example 69, N-(2-(2,2-dimethylpyrrolidin-1-yl)ethyl)-6-methyl-5-((1-methyl-6-((1-methyl-1H-pyrazol-4-yl)amino)-1H-pyrazolo[4,3-c]pyridin-3-yl)amino)nicotinamide]	48.4	1.27	> 7500	36.9
Cc1ccc(C(=O)NCCN2CC(C)(C)C2)cc1Nc1nn(C)c2nc(Nc3cnn(C)c3)ncc12 [Example 64, N-(2-(3,3-dimethylazetidin-1-yl)ethyl)-4-methyl-3-((1-methyl-6-((1-methyl-1H-pyrazol-4-yl)amino)-1H-pyrazolo[3,4-d]pyrimidin-3-yl)amino)benzamide]	2.1	0.26	1030	8.9
Cc1ncc(C(=O)NCCN2CCCC(F)(F)C2)cc1Nc1nn(C)c2nc(Nc3cncnc3)ncc12 [Example 2, N-(2-(3,3-difluoropiperidin-1-yl)ethyl)-6-methyl-5-((1-methyl-6-(pyrimidin-5-ylamino)-1H-pyrazolo[3,4-d]pyrimidin-3-yl)amino)nicotinamide]	3.7	0.57	> 7500	27.1
Cc1ncc(C(=O)NCCN2CCCC2(C)C)cc1Nc1nn(C)c2nc(Nc3cnn(C)c3C)ncc12 [Example 156, 5-((6-((1,5-dimethyl-1H-pyrazol-4-yl)amino)-1-methyl-1H-pyrazolo[3,4-d]pyrimidin-3-yl)amino)-N-(2-(2,2-dimethylpyrrolidin-1-yl)ethyl)-6-methylnicotinamide]	20.2	2.15	> 7500	19.7
Cc1nn(C)cc1Nc1ncc2c(Nc3cc(C(=O)NCCN4CCC5(CC5)C4)cnc3C)nn(C)c2n1 [Example 154, N-(2-(5-azaspiro[2.4]heptan-5-yl)ethyl)-5-((6-((1,3-dimethyl-1H-pyrazol-4-yl)amino)-1-methyl-1H-pyrazolo[3,4-d]pyrimidin-3-yl)amino)-6-methylnicotinamide]	12	1.41	> 7500	120
COCCN(CCNC(=O)c1cnc(C)c(Nc2nn(C)c3nc(Nc4cnn(C)c4)ncc23)c1)C1CCC1 [Example 84, N-(2-(cyclobutyl(2-methoxyethyl)amino)ethyl)-6-methyl-5-((1-methyl-6-((1-methyl-1H-pyrazol-4-yl)amino)-1H-pyrazolo[3,4-d]pyrimidin-3-yl)amino)nicotinamide]	3.6	0.39	> 7500	11.1
